{
  "source": "patent US12421206B2",
  "about": "“Aryl-n-aryl derivatives for treating a RNA virus infection” (ABIVAX, priority 2018, dated 2025)",
  "data": [
    {"system": "RSV A2", "test": "RSV inhibition (cytopathic effect inhibition) using Viral ToxGlo assay in HEp-2 cells", "format": "cell-based", "conditions": "human respiratory syncytial virus, RSV A2, MOI 0.5, HEp-2 cells, 72 h p.i.", "method": "Protocol for Screening Antiviral Compounds for RSV Inhibition and Cytotoxicity Using Viral ToxGlo Assay\nHEp-2 cells were maintained in Eagle's minimum essential medium (EMEM) with Earle's BSS adjusted to contain 2 mM L-glutamine, 10% fetal bovine serum, 100 U/ml penicillin and 100 μg/ml streptomycin. For the purposes of the screening assay they were grown to 90% confluency, trypsinized and recovered. The trypsin was neutralised with cell culture media and cells were centrifuged at 150×g for 5 minutes before discarding the supernatant and resuspending cell pellet in assay media (EMEM with Earle's BSS adjusted to contain 2 mM L-glutamine, 2% fetal bovine serum and 100 U/ml penicillin and 100 μg/ml streptomycin). The cells were seeded into white clear-bottomed cell culture plates at a density of 1.5×10^4 cells/well in 50 μl and 4×10^3 cells/well in 25 μl for 96 well plates and 384 well plates respectively. For the media/background control column assay media only was added. Cell plates were placed in a humid chamber and incubated overnight at 37° C./5% CO2. After overnight incubation cells were checked for confluency and healthy appearance.\nTest articles were made up at 10× test concentration in a maximum DMSO concentration of 10% (final assay concentration maximal 1% DMSO) and added to the cell plates in volumes of 10 μl for 96 well plates and 5 μl for 384 well plates. For cell control and virus control wells the test article solvent only was added. Virus or assay media for cytotoxicity test wells and media/cell control wells was added immediately after test articles at an MOI of 0.5, 40 or 20 μl for 96 and 384 well plates respectively. Virus suspension was prepared by thawing RSV A2 frozen stocks and diluting to the required concentration of plaque forming units in assay media on ice.\nCell plates were further incubated inside a humid chamber for 72 h p.i at 37° C./5% CO2. After the incubation period cells were observed under the microscope to check for characteristic cytopathic effect in virus control wells and healthy cells in the cell control wells. After plates were adjusted to room temperature 20/40 μl Viral ToxGlo (Promega) was added to each well of the 384/96 well cell plates. Plates were incubated at room temperature, protected from light on a plate rocker for 20 minutes before measuring the luminescence on a spectrophotometer (Biotek Synergy HTX).\nRSV inhibition was calculated as percentage of cytopathic effect inhibition relative to the virus control and cytotoxicity as percentage of cell survival relative to cell control wells. This allowed EC50 values to be calculated for each test article where a virus inhibition or cytotoxic dose response was identified.", "units": {"EC50": "nM"}, "values": [
      {"compound": "c1ccc(COc2ccc(Nc3cccc(OC4CCC4)c3)c(C3CC3)c2)nc1", "note": "[Compound 137, N-(3-cyclobutoxyphenyl)-2-cyclopropyl-4-[(pyridin-2-yl)methoxy]aniline]", "EC50": 300},
      {"compound": "c1ccc(COc2ccc(Nc3cccc(OCCCC4CCCCC4)c3)c(N3CCC3)c2)cc1", "note": "[Compound 131, 2-(azetidin-1-yl)-4-(benzyloxy)-N-[3-(3-cyclohexylpropoxy)phenyl]aniline]", "EC50": 204},
      {"compound": "c1ccc(COc2ccc(Nc3cccc(SCCCC4CCCCC4)c3)c(C3CC3)c2)cc1", "note": "[Compound 149, 4-(benzyloxy)-N-{3-[(3-cyclohexylpropyl)sulfanyl]phenyl}-2-cyclopropylaniline]", "EC50": 555},
      {"compound": "Cc1cc(OCc2ccc(OC(F)(F)F)cc2)ccc1Nc1cccc(NC(=O)CCC2CCCCC2)c1", "note": "[Compound 153, 3-cyclohexyl-N-{3-[(2-methyl-4-{[4-(trifluoromethoxy)phenyl]methoxy}phenyl)amino]phenyl}propanamide]", "EC50": 809},
      {"compound": "CS(=O)(=O)c1cc(OCc2ccccc2)ccc1Nc1cccc(NC(=O)CCC2CCCCC2)c1", "note": "[Compound 107, N-(3-{[4-(benzyloxy)-2-methanesulfonylphenyl]amino}phenyl)-3-cyclohexylpropanamide]", "EC50": 36},
      {"compound": "OC(CCCC1CCCCC1)c1cccc(Nc2ccc(OCc3ccccc3)cc2C2CC2)c1", "note": "(stereo not shown) [Compound 97, 1-(3-{[4-(benzyloxy)-2-cyclopropylphenyl]amino}phenyl)-4-cyclohexylbutan-1-ol]", "EC50": 10},
      {"compound": "O=C(NCCC1CCCC1)c1cccc(Nc2ccc(OCc3ccccn3)cc2C2CC2)c1", "note": "[Compound 60, N-(2-cyclopentylethyl)-3-((2-cyclopropyl-4-(pyridin-2-ylmethoxy)phenyl)amino)benzamide]", "EC50": 67},
      {"compound": "CCCC(C)NC(=O)c1cccc(Nc2ccc(OCc3ccccn3)cc2CC)c1", "note": "(stereo not shown) [Compound 78, N-(1-methylbutyl)-3-((2-ethyl-4-(pyridin-2-ylmethoxy)phenyl)amino)benzamide]", "EC50": 58},
      {"compound": "Cc1c(Nc2ccc(OCc3ccccn3)cc2C2CC2)cccc1OP(=O)(O)O", "note": "[Compound 109, [3-({2-cyclopropyl-4-[(pyridin-2-yl)methoxy]phenyl}amino)-2-methylphenoxy]phosphonic acid]", "EC50": 48},
      {"compound": "CC(C)CCCOc1cccc(Nc2ccc(OCc3ccccn3)cc2C2CC2)c1", "note": "[Compound 106, 2-cyclopropyl-N-{3-[(4-methylpentyl)oxy]phenyl}-4-[(pyridin-2-yl)methoxy]aniline]", "EC50": 33},
      {"compound": "O=C(NCCC1CCCCC1)c1ccnc(Nc2ccc(OCc3ccccn3)cc2C2CC2)c1", "note": "[Compound 90, N-(2-cyclohexylethyl)-2-((2-cyclopropyl-4-(pyridin-2-ylmethoxy)phenyl)amino)isonicotinamide]", "EC50": 92},
      {"compound": "CC(C)NC(=O)c1c(C#N)cccc1Nc1ccc(OCc2ccccc2)cc1C1CC1", "note": "[Compound 128, 2-{[4-(benzyloxy)-2-cyclopropylphenyl]amino}-6-cyano-N-(propan-2-yl)benzamide]", "EC50": 156},
      {"compound": "Cc1c(NC(=O)C2(C(N)=O)CC2)cccc1Nc1ccc(OCc2ccccn2)cc1C1CC1", "note": "[Compound 108, N′1-[3-({2-cyclopropyl-4-[(pyridin-2-yl)methoxy]phenyl}amino)-2-methylphenyl]cyclopropane-1,1-dicarboxamide]", "EC50": 41},
      {"compound": "O=C(CCC1CCCCC1)Nc1cccc(Nc2ccc(OCc3ccccc3)cc2C2=CCCC2)c1", "note": "[Compound 92, N-(3-{[4-(benzyloxy)-2-(cyclopent-1-en-1-yl)phenyl]amino}phenyl)-3-cyclohexylpropanamide]", "EC50": 4},
      {"compound": "CC(C)Cn1nnc(-c2cccc(Nc3ccc(OCc4ccccn4)cc3C3CC3)c2)n1", "note": "[Compound 147, 2-cyclopropyl-N-{3-[2-(2-methylpropyl)-2H-1,2,3,4-tetrazol-5-yl]phenyl}-4-[(pyridin-2-yl)methoxy]aniline]", "EC50": 414},
      {"compound": "O=C(NCCCC1CCCCC1)c1ccccc1Nc1ccc(OCc2ccccc2)cc1C1CC1", "note": "[Compound 103, 2-{[4-(benzyloxy)-2-cyclopropylphenyl]amino}-N-(3-cyclohexylpropyl)benzamide]", "EC50": 24},
      {"compound": "CC(C)(C)OC(=O)N1CCN(C(=O)c2cccc(Nc3ccc(OCc4ccccn4)cc3C3CC3)c2)CC1", "note": "[Compound 134, tert-butyl 4-[3-({2-cyclopropyl-4-[(pyridin-2-yl)methoxy]phenyl}amino)benzoyl]piperazine-1-carboxylate]", "EC50": 281},
      {"compound": "Cc1c(Nc2ccc(OCc3ccccc3)cc2C2CC2)cccc1OCCCC1CCCCC1", "note": "[Compound 105, 4-(benzyloxy)-N-[3-(3-cyclohexylpropoxy)-2-methylphenyl]-2-cyclopropylaniline]", "EC50": 31},
      {"compound": "O=C(NCCC1CCCC1)c1cccc(Nc2ccc(OCc3ccncc3)cc2C2CC2)c1", "note": "[Compound 89, N-(2-cyclopentylethyl)-3-((2-cyclopropyl-4-(pyridin-4-ylmethoxy)phenyl)amino)benzamide]", "EC50": 140},
      {"compound": "O=C(CCC1CCCCC1)Nc1cccc(Nc2ccc(OCc3ccccc3)cc2C2CCCC2)c1", "note": "[Compound 93, N-(3-{[4-(benzyloxy)-2-cyclopentylphenyl]amino}phenyl)-3-cyclohexylpropanamide]", "EC50": 4},
      {"compound": "N#CC1(NC(=O)c2ccccc2Nc2ccc(OCc3ccccn3)cc2C2CC2)CC1", "note": "[Compound 136, N-(1-cyanocyclopropyl)-2-({2-cyclopropyl-4-[(pyridin-2-yl)methoxy]phenyl}amino)benzamide]", "EC50": 295},
      {"compound": "O=C(CCC1CCCCC1)Nc1cccc(Nc2ccc(OCc3ccc(F)cc3)cc2C(F)(F)F)c1", "note": "[Compound 99, 3-cyclohexyl-N-[3-({4-[(4-fluorophenyl)methoxy]-2-(trifluoromethyl)phenyl}amino)phenyl]propanamide]", "EC50": 13},
      {"compound": "O=C(NCCC1CCCCC1)c1ccccc1Nc1ccc(OCc2ccccc2)cc1C1CC1", "note": "[Compound 115, 2-{[4-(benzyloxy)-2-cyclopropylphenyl]amino}-N-(2-cyclohexylethyl)benzamide]", "EC50": 83},
      {"compound": "CCCC(C)NC(=O)c1cccc(Nc2ccc(OCc3ccccn3)cc2C)c1", "note": "(stereo not shown) [Compound 77, N-(1-methylbutyl)-3-((2-methyl-4-(pyridin-2-ylmethoxy)phenyl)amino)benzamide]", "EC50": 124},
      {"compound": "c1ccc(COc2ccc(Nc3ccccc3OCCCC3CCCCC3)c(C3CC3)c2)cc1", "note": "[Compound 154, 4-(benzyloxy)-N-[2-(3-cyclohexylpropoxy)phenyl]-2-cyclopropylaniline]", "EC50": 810},
      {"compound": "O=C(NCCC1CCCCC1)c1cncc(Nc2ccc(OCc3ccccn3)cc2C2CC2)c1", "note": "[Compound 88, N-(2-cyclohexylethyl)-5-((2-cyclopropyl-4-(pyridin-2-ylmethoxy)phenyl)amino)nicotinamide]", "EC50": 461},
      {"compound": "O=C(NCCC1CCCCC1)Nc1cccc(Nc2ccc(OCc3ccccn3)cc2C2CC2)c1", "note": "[Compound 96, 1-(2-cyclohexylethyl)-3-[3-({2-cyclopropyl-4-[(pyridin-2-yl)methoxy]phenyl}amino)phenyl]urea]", "EC50": 10},
      {"compound": "Cc1cc(OCc2ccccc2)ccc1Nc1ccccc1C(=O)NCCC1CCCCC1", "note": "[Compound 139, 2-{[4-(benzyloxy)-2-methylphenyl]amino}-N-(2-cyclohexylethyl)benzamide]", "EC50": 329},
      {"compound": "C[Si](C)(C)Oc1cccc(Nc2ccc(OCc3ccccn3)cc2C2CC2)c1", "note": "[Compound 141, 2-cyclopropyl-4-[(pyridin-2-yl)methoxy]-N-{3-[(trimethylsilyl)oxy]phenyl}aniline]", "EC50": 352},
      {"compound": "CCc1cc(OCc2ccccn2)ccc1Nc1cccc(C(=O)NCCC2CCCCC2)c1", "note": "[Compound 75, N-(2-(cyclohexyl)ethyl)-3-((2-ethyl-4-(pyridin-2-ylmethoxy)phenyl)amino)benzamide]", "EC50": 25},
      {"compound": "O=C(NCC1CCCC1)c1ccccc1Nc1ccc(OCc2ccccn2)cc1C1CC1", "note": "[Compound 113, N-(cyclopentylmethyl)-2-({2-cyclopropyl-4-[(pyridin-2-yl)methoxy]phenyl}amino)benzamide]", "EC50": 69},
      {"compound": "Cc1cc(OCc2cccnn2)ccc1Nc1cccc(OCCCC2CCCCC2)c1", "note": "[Compound 148, N-[3-(3-cyclohexylpropoxy)phenyl]-2-methyl-4-[(pyridazin-3-yl)methoxy]aniline]", "EC50": 532},
      {"compound": "O=S(=O)(NCCC1CCCCC1)c1cccc(Nc2ccc(OCc3ccccn3)cc2C2CC2)c1", "note": "[Compound 79, N-(2-(cyclohexyl)ethyl)-3-((2-cyclopropyl-4-(pyridin-2-ylmethoxy)phenyl)amino)benzenesulfonamide]", "EC50": 33},
      {"compound": "O=C(NCCC1CCCCC1)c1cccc(Nc2ccc(OCc3cccnc3)cc2C2CC2)c1", "note": "[Compound 85, N-(2-cyclohexylethyl)-3-((2-cyclopropyl-4-(pyridin-3-ylmethoxy)phenyl)amino)benzamide]", "EC50": 8}
    ]}
  ]
}
